Assays:
Type in all cases: in vivo
[1] = test system: barnyard grass (Echinochloa crus-galli); experiment: Test Example 1: foliar application pot test, visual growth control rating; design: key: 1: the same as in an untreated plot; 10: perfect growth control; details: wettable powder, observed 20 to 31 days after application
Text: (§1) 1/1,500 are [are (a) = 100 m²] pots were filled with upland farming soil, which in the pots was then sown with a variety of plants. The plants grown will be enumerated below.
(§2) When each plant reached a given growth stage (a 1.2- to 3.0-leaf stage for rice, primary leaf to a 0.7-leaf stage for soybean, 2.1- to 3.6-leaf stage for corn, cotyledon to 0.7-leaf stage for cotton, 2.0- to 3.0-leaf stage for wheat, 0.3- to 3.4-leaf stage for cocklebur, 0.3- to 1.6-leaf stage for morning glory, 0.1- to 1.3-leaf stage for prickly sida, 0.1- to 1.3-leaf stage for slender amaranth, 1.5- to 3.2-leaf stage for barnyard glass, and 1.2- to 3.0-leaf stage for large crabgrass), a predetermined amount of the herbicide of the present invention in the form of a wettable powder, weighed out, diluted with 5 ℓ/a of water and admixed with 0.2 or 0.1 vol%, based on the resulting composition, of an agricultural spreader, was foliarly applied to the plant with a small spray gun. The progress of growth of the plant was visually observed 20 to 31 days after the foliar application to evaluate the degree of growth control according to 10 ratings (1: the same as in an untreated plot - 10: perfect growth control).

corn (Zea mays) = experiment: as above; design: key: 1: the same as in an untreated plot; 10: perfect growth control; details: wettable powder, observed 20 to 31 days after application
Text: as §1, §2

[2] = test system: large crabgrass (Digitaria adscendens); experiment: as above; design: key: 1: the same as in an untreated plot; 10: perfect growth control; details: wettable powder, observed 20 to 31 days after application
Text: as §1, §2

[3] = test system: morning glory (Ipomoea purpurea); experiment: as above; design: key: 1: the same as in an untreated plot; 10: perfect growth control; details: wettable powder, observed 20 to 31 days after application
Text: as §1, §2

rice (Oryza sativa) = experiment: as above; design: key: 1: the same as in an untreated plot; 10: perfect growth control; details: wettable powder, observed 20 to 31 days after application
Text: as §1, §2

[4] = test system: slender amaranth (Amaranthus viridis); experiment: as above; design: key: 1: the same as in an untreated plot; 10: perfect growth control; details: wettable powder, observed 20 to 31 days after application
Text: as §1, §2

[5] = test system: velvet leaf (Abutilon theophrasti); experiment: Test Example 2: foliar application pot test, visual herbicidal effect rating, single and combined herbicides; details: velvet leaf 1.2-leaf stage, 25 days after foliar application; further: ranges in brackets are in %
Text: 1/10000-are pot was filled with upland farming soil and sown with velvet leaf (Abutilon theophrasti). When the plant reached the 1.2-leaf stage, a predetermined amount of the herbicide of the present invention diluted with 5 ℓ of water per are and admixed with 0.1 vol%, based on the aqueous solution, of an agricultural spreader ("Kusa Rino", produced by Nihon Nohyaku Co., Ltd.) was foliarly applied to the plant with a small spray gun. The herbicidal effect was visually observed 25 days after the foliar application and evaluated according to the rating system shown below.

velvet leaf [6] = experiment: Test Example 3: foliar application pot test, percent growth inhibition by fresh weight of aerial part and Colby's value; details: Abutilon theophrasti, velvet leaf 1-leaf stage, 20th day from foliar application, fresh weight of aerial part, read-out: Percent Growth Inhibition (%) Found; for inhibition at 16 g/ha: 0.16 g/a; for inhibition at 63 g/ha: 0.63 g/a
Text: (§3) 1/10000-are pot was filled with upland farming soil and sown with velvet leaf. When the plant reached the 1-leaf stage, a predetermined amount of the herbicide of the present invention diluted with 5 ℓ of water per are and admixed with 0.1 vol%, based on the aqueous solution, of an agricultural spreader ("Kusa Rino") was foliarly applied to the plant with a small spray gun. On the 20th day from the application, the aerial part of the plant was weighed to obtain a percent growth inhibition according to Equation (1) (found value) and a Colby's value (calculated value) according to Equation (2) (see Weed, Vol. 15, pp. 20-22 (1967)). Percent Growth Inhibition (%) = (1 -(Fresh Weight of Aerial Part of Plant in Treated Plot)/(Fresh Weight of Aerial Part of Plant in Untreated Plot)) x 100 [formula] Colby's Value (E) = α + β -(α x β)/(100) [formula]
(§4) Wherein α represents a percent growth inhibition when treated with an amount a (g/a) of herbicide A; β represents a percent growth inhibition when treated with amount b (g/a) of herbicide B; and E represents an expected percent growth inhibition when treated with a of herbicide A and b of herbicide B.

velvet leaf [7] = experiment: Test Example 4: foliar application pot test, percent growth inhibition by fresh weight of aerial part and Colby's value; details: Abutilon theophrasti, read-out: Percent Growth Inhibition (%) Found
Text: as §3, §4
(§5) 1/10000-are pot was filled with upland farming soil and sown with velvet leaf. When the plant reached the 1-leaf stage, a predetermined amount of the herbicide of the present invention diluted with 5 ℓ of water per are and admixed with 0.1 vol%, based on the aqueous solution, of an agricultural spreader ("Kusa Rino") was foliarly applied to the plant with a small spray gun. On the 20th day from the application, the aerial part of the plant was weighed to obtain a percent growth inhibition and a Colby's value in the same manner as in Test Example 3.

[8] = test system: large crabgrass (Digitaria adscendens); experiment: Test Example 5: foliar application pot test, percent growth inhibition by fresh weight of aerial part and Colby's value; details: read-out: Percent Growth Inhibition (%) Found
Text: as §3, §4
as §5, with “large crabgrass (Digitaria adscendens).” for “velvet leaf.”, “2-leaf” for “1-leaf”

cotton (Gossypium) = experiment: Test Example 1: foliar application pot test, visual growth control rating; details: wettable powder, observed 20 to 31 days after application
Text: as §1, §2

[9] = test system: cocklebur (Xanthium strumarium); experiment: as above; design: key: 1: the same as in an untreated plot; 10: perfect growth control; details: wettable powder, observed 20 to 31 days after application
Text: as §1, §2

[10] = test system: prickly sida (Sida spinosa); experiment: as above; design: key: 1: the same as in an untreated plot; 10: perfect growth control; details: 1.25 g/a active ingredient, wettable powder, observed 20 to 31 days after application
Text: as §1, §2

soybean (Glycine max) = experiment: as above; design: key: 1: the same as in an untreated plot; 10: perfect growth control; details: 1.25 g/a active ingredient, wettable powder, observed 20 to 31 days after application
Text: as §1, §2

SMILES | degree of growth control, EC ([1]; 0.31 g/a active ingredient) | degree of growth control, EC ([1]; 1.25 g/a active ingredient) | degree of growth control, ZE (corn (Zea mays); 0.31 g/a active ingredient) | degree of growth control, ZE (corn (Zea mays); 1.25 g/a active ingredient) | degree of growth control, DI ([2]; 1.25 g/a active ingredient) | degree of growth control, IP ([3]; 0.31 g/a active ingredient) | degree of growth control, IP ([3]; 1.25 g/a active ingredient) | degree of growth control, OR (rice (Oryza sativa); 1.25 g/a active ingredient) | degree of growth control, AM ([4]; 1.25 g/a active ingredient) | inhibition at 16 g/ha (velvet leaf [6]) [%] | inhibition at 63 g/ha (velvet leaf [6]) [%] | degree of growth control, GO (cotton (Gossypium); 1.25 g/a active ingredient) | degree of growth control, XA ([9]; 1.25 g/a active ingredient) | further results
CCN(c1cccc(S(=O)(=O)NC(=O)Nc2nc(C)nc(OC)n2)n1)S(=O)(=O)C(C)Cl (racemic) [Compound No. 54, 6-[[N-(1-chloroethylsulfonyl)-N-ethyl]amino]-N-[[(4-methoxy-6-methyltriazin-2-yl)amino]carbonyl]-2-pyridinesulfonamide] | 10 | 10 | 10 | 10 | 3 | 9 | 9 | 9 | 9 | 19 | 86 |  |  | degree of growth control, DI ([2]; 0.31 g/a active ingredient): 3; degree of growth control, OR (rice (Oryza sativa); 0.31 g/a active ingredient): 9; degree of growth control, AM ([4]; 0.31 g/a active ingredient): 9; Rating ([5]; 0.16 g/a): 3 (30-39); Rating ([5]; 0.31 g/a): 5 (50-59); Rating ([5]; 0.63 g/a): 6 (60-69); Rating ([5]; 1.25 g/a): 8 (80-89); inhibition at 31 g/ha (velvet leaf [6]; 0.31 g/a): 52%; inhibition at 16 g/ha (velvet leaf [7]; 0.16 g/a, velvet leaf 1-leaf stage, 20th day from foliar application, fresh weight of aerial part): 12%; inhibition at 31 g/ha (velvet leaf [7]; 0.31 g/a, velvet leaf 1-leaf stage, 20th day from foliar application, fresh weight of aerial part): 32%; inhibition at 63 g/ha (velvet leaf [7]; 0.63 g/a, velvet leaf 1-leaf stage, 20th day from foliar application, fresh weight of aerial part): 66%; inhibition at 16 g/ha ([8]; 0.16 g/a, foliar application, 20th day, large crabgrass): 19%; inhibition at 31 g/ha ([8]; 0.31 g/a, foliar application, 20th day, large crabgrass): 24%; inhibition at 63 g/ha ([8]; 0.63 g/a, foliar application, 20th day, large crabgrass): 77%
CCC(Cl)S(=O)(=O)N(CC)c1cccc(S(=O)(=O)NC(=O)Nc2nc(C)nc(OC)n2)n1 (racemic) [compound 88] | 10 | 10 | 10 | 10 |  | 10 | 10 |  |  |  |  | 6 | 10 | degree of growth control, GO (cotton (Gossypium); 0.31 g/a active ingredient): 6; degree of growth control, XA ([9]; 0.31 g/a active ingredient): 10
CC(C)N1C(=O)c2ccccc2NS1(=O)=O [Bentazon, 3-(1-methylethyl)-(1H)-2,1,3-benzothiadiazin-4(3H)-one-2,2-dioxide, reference compound] |  |  |  |  |  |  |  |  |  |  | 17 |  |  | inhibition at 125 g/ha (velvet leaf [6]; 1.25 g/a): 69%
CON(C)C(=O)Nc1ccc(Cl)c(Cl)c1 [Linuron, 3-(3,4-dichlorophenyl)-1-methoxy-1-methylurea, reference compound] |  |  |  |  |  |  |  |  |  |  |  |  |  | inhibition at 12.5 g/ha (velvet leaf [7]; foliar): 35%; inhibition at 25 g/ha (velvet leaf [7]; foliar): 61%; inhibition at 12.5 g/ha ([8]; foliar): 23%; inhibition at 25 g/ha ([8]; foliar): 68%; inhibition at 50 g/ha ([8]; foliar): 79%
CSc1nnc(C(C)(C)C)c(=O)n1N [Metribuzin, 4-amino-6-(1,1-dimethylethyl)-3-(methylthio)-1,2,4-triazin-5(4H)-one, reference compound] |  |  |  |  |  |  |  |  |  | 89 |  |  |  | 
CCN(c1cccc(S(=O)(=O)NC(=O)Nc2nc(C)nc(OC)n2)n1)S(=O)(=O)CC(F)(F)F [compound 79] |  | 1 |  | 1 | 3 |  | 7 | 1 | 6 |  |  | 6 | 6 | degree of growth control, SI [10]: 3; degree of growth control, GL (soybean (Glycine max)): 6
